# Entries after “also recorded” stand apart in the source; their conditions may differ.
# Key:
# [1] = tested on: cardiac sympathetic afferent reflex (CSAR); test: CSAR activation: cardiovascular and sympathetic responses to epicardial capsaicin or bradykinin; format: in vivo, rat; conditions: for cardiovascular responses to acute epicardial application of capsaicin and bradykinin: sham rats
# Procedure: (§1) In order to desensitize cardiac sympathetic afferents in rats, resiniferatoxin (RTX, 1 mg; Sigma Aldrich) was dissolved in 2 ml of ethanol and mixed with 18 ml of Tween in isotonic saline. RTX (50 μg/ml) was applied twice on the entire left and right ventricles with a swab just prior to coronary ligation. The dose of RTX was determined by preliminary experiments in which we found nearly complete ablation of TRPV1-expressing cardiac nerve endings on the surface of the rat heart for more than 10 weeks. Rat surgery was performed 9-11 weeks post-MI. Rats were anesthetized with urethane (800 mg/kg ip) and α-chloralose (40 mg/kg ip). Renal sympathetic nerve activity (RSNA) and cardiac sympathetic nerve activity (CSNA) were recorded for evaluating basal renal and cardiac sympathetic tone.
# In another parallel set of experiments, we further confirmed the efficiency of RTX-induced TRPV1-expressing CSAR afferent ablation functionally by epicardial application of capsaicin and bradykinin (10 μg/ml) in sham+RTX rats treated with various doses (0.5 μg/ml, 5 μg/ml and 50 μg/ml) and at various time points (1 week, 4-6 weeks, 9-11 weeks and 6 months after RTX). […] Therefore, a higher dose greater than 5 μg/ml should be used for epicardial administration.
# To determine activation of the CSAR, epicardial application of capsaicin and bradykinin was used to effectively stimulate the cardiac sympathetic afferents (Zahner et al. J. Physiol. 2003; 551:515-523). The time interval between capsaicin and bradykinin was about 15-20 min to allow the arterial pressure (AP), heart rate (HR) and renal sympathetic nerve activity (RSNA) to return to, and stabilize at their control levels.
# [2] = tested on: post MI rats; test: Long-term survival of post MI rats; format: in vivo, rat
# Source text: This example illustrates effects of RTX on the long-term survival rate of post MI rats. […] Over a 6 month period over 50% of vehicle—treated rats died. This contrasts with under 20% of RTX treated—rats.
# [3] = tested on: rats; conditions: subcutaneous and epidural administration; cited from earlier work
# [4] = target: T1, TRPV1-expressing cardiac afferents (Rattus norvegicus, UniProt O35433); test: TRPV1 immunofluorescence in cardiac nerve endings after epicardial RTX; format: in vivo
# T1 construct: from tissue; host or cells: cardiac (epicardial) nerve endings of male Sprague-Dawley rats, in vivo
# Procedure: as §1
# More specifically, we examined TRPV1 protein expression in cardiac nerve endings from vehicle and RTX-treated rats using immunofluorescence. Experiments were performed on male Sprague-Dawley rats weighing −400 to −500 g. […] Cardiac function in all experimental animals was measured 2 and 6 weeks after MI by echocardiography (VEVO 770, Visual Sonics, Inc.) as described in (Wang et al., J. Appl. Physiol. 2010; 108:1365-1375; Wang et al. 2, Am. J. Physiol. Regul. Integr. Comp. Physiol. 2012; 320:R1260-R1270; and Wang et al. 3, J. Physiol. 2010; 588:5033-5047). […]
# [5] = tested on: sham and CHF rats; test: In vivo left ventricular PV loop analysis
# [6] = tested on: non-infarcted LV and IVS walls of sham and CHF rats; test: Cardiac fibrosis: picrosirius red staining and western blot of fibrotic markers; format: in vivo, rat
# Source text: (§2) This example illustrates the effects of RTX on cardiac fibrosis in sham and CHF rats. Considering that RTX-mediated reduction in LVEDP in CHF rats may be related to an improvement in cardiac compliance, we further evaluated cardiac fibrosis using picrosirus red staining and protein expression of two fibrotic markers (a smooth muscle actin and fibronectin) as well as their upstream activator, transforming growth factor (TGF) β receptor I in the non-infarcted LV and inter-ventricular septum (IVS) walls from sham and CHF rats treated with either vehicle or RTX. For histopathology, the rat heart was fixed in 10% phosphate buffered formalin, embedded in paraffin, and cut into 10 μm serial sections from apex to base. Picrosirius red staining was performed to detect myocardial fibrosis. Immunohistochemistry staining of cleaved caspase 3 (CC3) was also performed in paraffin sections from the same heart tissues which were used for picrosirius red staining experiments.
# [7] = tested on: myocardium of sham and CHF rats; test: Cardiac apoptosis: TUNEL staining and cleaved caspase 3; format: in vivo, rat
# Source text: as §2
# This example illustrates effects of RTX on cardiac apoptosis in sham and CHF rats. Cardiac remodeling includes hypertrophy, fibrosis and apoptosis. Based on the beneficial effects of RTX on cardiac hypertrophy and cardiac fibrosis in CHF rats, we further investigated the effect of RTX on cardiac apoptosis in sham and CHF rats. TUNEL staining was performed. Terminal deoxynucleotidyl transferase dUTP-mediated nick-end labeling (TUNEL) staining and analysis was performed to evaluate the effect of RTX on cardiac apoptosis. Representative photomicrographs are depicted in FIG. 6A.
# [8] = tested on: sham and CHF rats; test: Basal sympathetic tone (RSNA, CSNA, urinary NE) and arterial baroreflex function
# [9] = sham and CHF rats, 9-11 weeks after epicardial RTX 50 μg/ml
# T1 sequence (O35433 whole entry): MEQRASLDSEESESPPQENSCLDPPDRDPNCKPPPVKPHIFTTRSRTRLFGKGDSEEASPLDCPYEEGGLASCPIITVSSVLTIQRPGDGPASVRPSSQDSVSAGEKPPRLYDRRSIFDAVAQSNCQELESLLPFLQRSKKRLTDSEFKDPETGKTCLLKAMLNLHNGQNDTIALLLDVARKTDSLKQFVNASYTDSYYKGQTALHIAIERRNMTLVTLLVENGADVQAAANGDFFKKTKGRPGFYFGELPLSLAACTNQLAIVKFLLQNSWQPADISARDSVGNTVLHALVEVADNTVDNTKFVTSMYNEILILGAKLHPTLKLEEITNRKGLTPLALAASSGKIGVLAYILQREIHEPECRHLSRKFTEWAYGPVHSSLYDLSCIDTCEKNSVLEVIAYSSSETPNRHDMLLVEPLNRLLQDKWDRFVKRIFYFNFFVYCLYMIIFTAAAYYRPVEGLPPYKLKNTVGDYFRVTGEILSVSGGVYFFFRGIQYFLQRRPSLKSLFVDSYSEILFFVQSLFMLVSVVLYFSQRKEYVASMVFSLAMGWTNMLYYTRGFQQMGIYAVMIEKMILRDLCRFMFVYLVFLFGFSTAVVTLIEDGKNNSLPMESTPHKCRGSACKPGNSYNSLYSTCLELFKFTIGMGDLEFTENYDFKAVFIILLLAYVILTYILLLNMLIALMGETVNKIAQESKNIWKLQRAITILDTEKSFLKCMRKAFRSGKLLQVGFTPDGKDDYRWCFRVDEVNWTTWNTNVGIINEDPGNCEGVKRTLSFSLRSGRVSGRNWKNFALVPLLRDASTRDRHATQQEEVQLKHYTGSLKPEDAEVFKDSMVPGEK
compound,measurement,setting,value
"C=C(C)[C@]12C[C@@H](C)[C@@]34O[C@](Cc5ccccc5)(O[C@@H]1[C@@H]3C=C(COC(=O)Cc1ccc(O)c(OC)c1)C[C@]1(O)C(=O)C(C)=C[C@@H]41)O2 [RTX, resiniferatoxin]",sham rats showing partial recovery of the cardiovascular responses to capsaicin and bradykinin,"[1]; 10 weeks after epicardial RTX 5 μg/ml, preliminary experiment",40%
same,duration for which CSAR was abolished,[1]; RTX 50 μg/ml applied to the surface of heart,9-11 weeks
same,sensitivity to capsaicin and bradykinin,"[1]; all rats, 10 weeks after epicardial RTX 50 μg/ml",still insensitive
same,cardiovascular responses to capsaicin and bradykinin / CSAR sensitivity at 6 months after RTX,"[1]; epicardial RTX 50 μg/ml, 6 months",recovery of CSAR sensitivity; also recorded: largely recovered
same,duration for which cardiovascular responses to capsaicin and bradykinin were abolished,"[1]; epicardial RTX 50 μg/ml, time course experiments",more than 10 weeks
same,bradykinin-induced CSAR activation,[1]; [9],greatly attenuated
same,"cardiovascular and sympathetic activation (MAP, HR, RSNA) in response to epicardial capsaicin",[1]; [9],almost completely abolished
same,cardiovascular responses to acute epicardial application of capsaicin and bradykinin,[1]; 1 week after epicardial RTX 5 μg/ml,largely abolished
same,cardiovascular responses to acute epicardial application of capsaicin and bradykinin,[1]; 1 week after epicardial RTX 50 μ/ml,largely abolished
same,long-term (6 months) survival rates,"[2]; CHF rats, epicardial RTX 50 μg/ml at the time of coronary ligation",markedly improved
same,rats that died over a 6 month period,[2]; RTX treated post MI rats (vehicle: over 50%),under 20%
same,duration of thermal analgesia with no restoration of pain sensitivity,[3],over 7 days
same,TRPV1 immunoreactivity in the epicardium,"[4]; 1 week, 4-6 weeks and 9-11 weeks after epicardial RTX 50 μg/ml",absent
same,duration of nearly complete ablation of TRPV1-expressing cardiac nerve endings on the surface of the rat heart,"[4]; epicardial RTX 50 μg/ml, preliminary experiments",more than 10 weeks
same,"basal contractile function (dP/dtmax, PRSW and ESPVR)",[5]; CHF rats,did not have a significant effect
same,LV chamber size,[5]; CHF+RTX vs CHF+vehicle,reduction
same,Tau and LVEDP,[5]; CHF+RTX vs CHF+vehicle,reduced
same,dP/dtmin,[5]; CHF+RTX vs CHF+vehicle,increased
same,ventricular stiffness as shown by the EDPVR,[5]; CHF+RTX vs CHF+vehicle,reduced stiffness
same,contractile and relaxation parameters,[5]; sham rats,no effect
same,"picrosirus red staining, alpha smooth muscle actin, fibronectin and TGF β receptor I expression",[6]; CHF rats,reduced
same,"picrosirus red staining, fibrotic markers and TGF β receptor I",[6]; sham rats,did not cause any significant change
same,TUNEL-positive cells,"[7]; LV infarct, LV peri-infarct, LV remote and IVS regions, CHF+RTX vs CHF+vehicle",markedly reduced
same,increased cleaved caspase 3-positive cardiomyocytes,"[7]; LV peri-infarct, LV remote and IVS regions, CHF rats, immunohistochemistry",largely prevented
same,elevated protein expression of cleaved caspase 3,"[7]; LV remote and IVS regions, CHF rats",prevented
same,difference in number of TUNEL-positive cells in the heart,[7]; sham+vehicle vs sham+RTX rats,no significant difference
same,average slope and Gainmax of arterial baroreflex control of HR and RSNA,[8]; CHF rats,significantly increased
same,basal RSNA and CSNA,[8]; CHF rats,lowered
same,minimum HR and RSNA of arterial baroreflex control,[8]; CHF rats,decreased
same,urinary NE excretion,[8]; CHF+RTX vs vehicle treated rats,significantly reduced
same,"average slope, Gainmax, and minimum RSNA or HR of arterial baroreflex control",[8]; sham rats,no significant effects
